Measurements published in patent publication US6515025B2, “Use of ethynyl alanine amino diol compounds to inhibit enzymatic conversion of angiotensinogen to angiotensin I” (Pharmacia Corporation, priority 1991, dated 2003).
Several values for one entry are separate records, joined by “and”; a condition that tells them apart may be missing. Identical values can stand only once.

Test: Oral bioavailability studies in marmosets (plasma concentration by bioassay)
Format: in vivo
Conditions: marmoset; for Plasma Concentrations: individual animals
Experimental: The bioavailability in marmosets and dogs was determined by sampling the blood via the femoral vein at various time points after administering the renin inhibitor compounds of the invention in polyethylene glycol 400 at an intragastric dose of 10 mg/kg or at an intravenous dose of 1 mg/kg. Compound concentration in plasma was determined using the bioassay technique described below. The percent bioavailability was calculated by dividing the area under the concentration-vs.-time curve obtained from the intragastric experiment by the area under the concentration-vs.-time curve obtained from the intravenous experiment (adjusting for different doses), and multiplying the result by 100%. The bioavailibility of Example 1 compound is 27% in marmosets and 33% in dogs.
Renin inhibitor plasma concentrations were determined by a bioassay. The plasma samples were extracted with acetonitrile and the extract was evaporated to dryness under nitrogen. Residue was dissolved in 4% bovine serum albumin containing 0.9% NaCl and 5% EDTA. The dissolved residue (0.1 ml) was incubated with a reaction mixture containing human plasma (0.12 ml), 5% phenylmethysulfonylfluoride (1.2 ul), 10% neomycin (2.4 ul), 0.5 M TES buffer (pH 7.4, 24 ul), and 0.6 mU/ml recombinant human renin (1000 U/mg, 50 ul) at 37° C. for 90 minutes. The renin activity was determined by a standard angiotensin I radioimmunoassay (New England Nuclear Corp.). The amount of test compound in the plasma was determined by comparing the extent of inhibition of renin activity with that produced by a known amount of test compound added to plasma and analyzed above.

C#CC[C@H](NC(=O)C(CC(=O)N(C)CCN(C)C)Cc1ccccc1)C(=O)NC(CC1CCCCC1)[C@@H](O)C(O)CC(C)C (relative stereo) [Example 1, N1-[1R*-[[[1S,1R*-(cyclohexylmethyl)-2S*,3R*-dihydroxy-5-methylhexyl]amino]carbonyl]-3-butynyl]-N4-[2-(dimethylamino)ethyl]-N4-methyl-2S*-(phenylmethyl)butanediamide]
Plasma Concentrations (IG at 10 mg/kg, Test Run A, 30 min, 10 mg/kg): 7258 ng/mL and 9322 ng/mL | Plasma Concentrations (IG at 10 mg/kg, Test Run A, 1 hr, 10 mg/kg): 1989 ng/mL and 1751 ng/mL | Plasma Concentrations (IG at 10 mg/kg, Test Run A, 2 hr, 10 mg/kg): 1525 ng/mL and 1811 ng/mL | Plasma Concentrations (IG at 10 mg/kg, Test Run A, 3 hr, 10 mg/kg): 5289 ng/mL and 6935 ng/mL | Plasma Concentrations (IG at 10 mg/kg, Test Run A, 4 hr, 10 mg/kg): 742 ng/mL and 1766 ng/mL and 1217 ng/mL | Plasma Concentrations (IG at 10 mg/kg, Test Run A, 5 hr, 10 mg/kg): 369 ng/mL and 1397 ng/mL and 945 ng/mL | Plasma Concentrations (IG at 10 mg/kg, Test Run A, 6 hr, 10 mg/kg): 3177 ng/mL and 4412 ng/mL | Plasma Concentrations (IG at 10 mg/kg, Test Run A, 8 hr, 10 mg/kg): 3036 ng/mL and 3800 ng/mL | Plasma Concentrations (IG at 10 mg/kg, Test Run B, 30 min, 10 mg/kg): 1016 ng/mL and 1126 ng/mL | Plasma Concentrations (IG at 10 mg/kg, Test Run B, 1 hr, 10 mg/kg): 416 ng/mL and 5266 ng/mL and 12300 ng/mL | Plasma Concentrations (IG at 10 mg/kg, Test Run B, 2 hr, 10 mg/kg): 519 ng/mL and 4847 ng/mL and 13485 ng/mL | Plasma Concentrations (IG at 10 mg/kg, Test Run B, 3 hr, 10 mg/kg): 2751 ng/mL and 3640 ng/mL and 1400 ng/mL | Plasma Concentrations (IG at 10 mg/kg, Test Run B, 4 hr, 10 mg/kg): 459 ng/mL and 4502 ng/mL and 11470 ng/mL | Plasma Concentrations (IG at 10 mg/kg, Test Run B, 5 hr, 10 mg/kg): 545 ng/mL and 3718 ng/mL and 7783 ng/mL | Plasma Concentrations (IG at 10 mg/kg, Test Run B, 6 hr, 10 mg/kg): 2721 ng/mL and 1950 ng/mL | Plasma Concentrations (IG at 10 mg/kg, Test Run B, 8 hr, 10 mg/kg): 1566 ng/mL and 1868 ng/mL | Plasma Concentrations (IV at 1 mg/kg, Test Run C, 2 min, 1 mg/kg): 21579 ng/mL and 16641 ng/mL | Plasma Concentrations (IV at 1 mg/kg, Test Run C, 15 min, 1 mg/kg): 6756 ng/mL and 15283 ng/mL and 11628 ng/mL | Plasma Concentrations (IV at 1 mg/kg, Test Run C, 30 min, 1 mg/kg): 10359 ng/mL and 7921 ng/mL | Plasma Concentrations (IV at 1 mg/kg, Test Run C, 1 hr, 1 mg/kg): 2665 ng/mL and 2793 ng/mL | Plasma Concentrations (IV at 1 mg/kg, Test Run C, 2 hr, 1 mg/kg): 795 ng/mL and 2362 ng/mL and 1667 ng/mL | Plasma Concentrations (IV at 1 mg/kg, Test Run C, 3 hr, 1 mg/kg): 404 ng/mL and 562 ng/mL | Plasma Concentrations (IV at 1 mg/kg, Test Run C, 4 hr, 1 mg/kg): 608 ng/mL and 1223 ng/mL and 1068 ng/mL | Plasma Concentrations (IV at 1 mg/kg, Test Run C, 6 hr, 1 mg/kg): 208 ng/mL and 245 ng/mL | Plasma Concentrations (IV at 1 mg/kg, Test Run D, 2 min, 1 mg/kg): 7875 ng/mL and 5900 ng/mL | Plasma Concentrations (IV at 1 mg/kg, Test Run D, 15 min, 1 mg/kg): 7239 ng/mL and 2016 ng/mL and 897 ng/mL | Plasma Concentrations (IV at 1 mg/kg, Test Run D, 30 min, 1 mg/kg): 2356 ng/mL and 1189 ng/mL | Plasma Concentrations (IV at 1 mg/kg, Test Run D, 1 hr, 1 mg/kg): 1250 ng/mL and 1614 ng/mL and 3149 ng/mL | Plasma Concentrations (IV at 1 mg/kg, Test Run D, 2 hr, 1 mg/kg): 1004 ng/mL and 1055 ng/mL | Plasma Concentrations (IV at 1 mg/kg, Test Run D, 3 hr, 1 mg/kg): 451 ng/mL and 557 ng/mL and 1009 ng/mL | Plasma Concentrations (IV at 1 mg/kg, Test Run D, 4 hr, 1 mg/kg): 153 ng/mL and 587 ng/mL and 506 ng/mL | Plasma Concentrations (IV at 1 mg/kg, Test Run D, 6 hr, 1 mg/kg): 84 ng/mL and 158 ng/mL | concentration at 2 min (plasma, iv, 1 mg/kg, IV at 1 mg/kg, 2 min, Test Run D table, read-out: Plasma Concentrations, Mean ± SE): 11600 ± 2770 ng/mL | concentration at 15 min (plasma, iv, 1 mg/kg, IV at 1 mg/kg, 15 min, Test Run D table, read-out: Plasma Concentrations, Mean ± SE): 7300 ± 2250 ng/mL | concentration at 30 min (plasma, iv, 1 mg/kg, IV at 1 mg/kg, 30 min, Test Run D table, read-out: Plasma Concentrations, Mean ± SE): 4940 ± 1510 ng/mL | concentration at 1 h (plasma, iv, 1 mg/kg, IV at 1 mg/kg, 1 hr, Test Run D table, read-out: Plasma Concentrations, Mean ± SE): 2430 ± 326 ng/mL
